From patent US8283375B2, “2, 6 xylidine derivatives for the treatment of pain” (Krisani Biosciences (P) Ltd., priority 2011, dated 2012)

System: spinal nerve ligation model for neuropathic pain in rats
Experiment: Von Frey test for mechanical allodynia in Chung spinal nerve (L5-L6) ligation model
Assay type: in vivo, SD rats
Conditions: 150 mg/kg; for analgesic efficacy on mechanical allodynia compared to Vehicle (conclusion in words): b105: 2 and 4.5 hours post-treatment on day 14 and 4.5 hours on day 21, b109: 2 hours post-treatment on days 14 and 21
Text: Experimental animals were male SD rats with a starting weight of 230-250 grams. Total number of animals were n=90 for surgery and n=60 after selection. The animals were caged in groups of 3 in a temperature and humidity controlled area. They were maintained on a 12 hr light/dark cycle and had ad libitum access to food and water.
Neuropathic pain inducement was done by following principles of Chung induced model. The SD rats were anesthetized using ketamine/xylazine sodium. The rats were shaved and placed in prone position for surgery. The L5-L6 spinal nerves were surgically litigated. The rats were returned to their cages for recuperation and recovery under comfortable warm conditions using heat lamps.
After seven days of surgery a pre selection was performed. Animals that indicate signs of post operative pain were to be selected to proceed. Pain is detected by observing when one or more of the criteria are met as follows. Licking of the operated paw, accompanied by gentle biting or pulling on the nails with the mouth; placing the leg in the air; bearing weight on the side contra-lateral to the nerve injury; deformities of the hind paw and abnormal posture and walking; weakness of the left hind paw. […] However, the animal must be able to move its leg to ensure that the L4 spinal nerve is intact. If the animal cannot move its leg, it was excluded from the study.
Second level of selection of the rats was done on day 14 after the surgery. Von Frey test was performed on the preselected rats after day 7 on day 14. Using Von Frey methodology, animals with a pain threshold of ≦26 g for the operated leg will be included in the study. After this selection step, the animals were randomly placed into their experimental groups.
Blank, positive control and test compound: Blank was just the medium used for dissolving other compounds. The positive control was Gabapentin and the test compound was the final compound of formula 1 discussed in the instant disclosure. Three types of experimental groups were formed. Different types of chemicals such as Vehicle and Control were used to determine the efficacy of the chemicals as well comparison of the instant disclosed compound of formula 1, with a positive control was performed. The final compound of the instant disclosure was administered at 100 mg/kg and 150 mg/kg body weight as two different groups. The Gabapentin was administered at 150 mg/kg body weight.
On day 14 blank compound and final compound will be administered once daily starting on study day 14 through study day 21. Gabapentin, the positive control, will be administered 2 hours prior to pain testing on study days 14 and 21. […]
Pain Response Evaluation: Pain response was evaluated using Von Frey test for mechanical allodynia. […]

| SMILES | duration of analgesic activity / activity compared with gabapentin (in words) | analgesic efficacy on mechanical allodynia compared to Vehicle (conclusion in words) | analgesic efficacy on mechanical allodynia compared to Vehicle (conclusion in words) (listed as compound of formula 1) |
| --- | --- | --- | --- |
| CCN(CCOC(=O)CCCCC1CCSS1)CC(=O)Nc1c(C)cccc1C (stereo not shown) [KRB-5b] | prolonged analgesic activity compared to gabapentin | effective as a pain analgesic item | effective in treating the spinal nerve ligation model for neuropathic pain in rats |
| NCC1(CC(=O)O)CCCCC1 [Gabapentin, reference compound] | active only at 2 hours post dosing | – | – |
